≈ marks a conversion by molar mass, not a printed value. Some results are limits rather than exact numbers.

In one assay the test system is Neisseria gonorrhoeae, GC525 (NG-2888). Description: in-vitro antibacterial activity, microbroth dilution MIC susceptibility testing. To be noted: Neisseria gonorrhoeae, microbroth dilution in gonococcal broth, 20-24 hours at 35 C, lowest concentration preventing visible growth, read-out: MIC. More on the design: unit: ug/mL. The assay is classed as cell-based. The method, then:
The in-vitro antibacterial activity of selected compounds was determined against a stain of Neisseria gonorrhoeae, GC525 (NG-2888), which is described by Rouquette-Loughlin et al, in Journal of Bacteriology, February 2003, p. 1101-1106, at p. 1103. In general, minimum inhibitory concentration (MIC) susceptibility testing followed procedures recommended by the National Committee for Clinical Laboratory Standards (NCCLS^1-2) or followed the descriptions described below:
Neisseria gonorrhoeae strains were grown on Chocolate Agar II plates (BBL—Becton Dickinson Microbiology Systems, Cockeysville, Md.) and incubated at 35° C. in a humidified 5% CO2 incubator (Form a Scientific, Marietta Ohio). For microbroth dilution MIC testing, N. gonorrhoeae were tested in gonococcal broth (GCB):
Gram stains were also utilized. Permanent Stock Culture Collection
Bacterial stock cultures are stored as frozen suspensions at −70 C. N. gonorrhoeae cultures are suspended in inactivated Horse Serum (Colorado Serum Company, Denver, Colo.) containing 7.5% glucose prior to snap freezing in a dry ice/ethanol bath.
Preparation of Standardized Test Inocula and Plate Inoculation
Frozen stock cultures were used as the initial source of organisms for performing microbroth dilution MIC testing. Stock cultures were passed on their respective growth medium at least one growth cycle (18-24 hours) prior to their use. Bacterial culture suspensions were prepared directly from Chocolate Agar II plates into 10 mL cation-adjusted Mueller-Hinton Broth (CAMHB, BBL, # BB215069). Before use, cultures were adjusted to an optical density value of 1.6-2 on a Perkin-Elmer Lambda EZ150 Spectrophotometer (Wellesley, Mass.) set at a wavelength of 600 nm. Random cultures were plated for validation of actual colony counts. The adjusted cultures were diluted 400-fold (0.25 mL inoculum+100 mL GCB) into gonococcal broth producing a starting inoculum of approximately 5×10^5 cfu/mL. These cultures were inoculated into test plates (100 uL/well) using a Biomek® FX workstation (Beckman Coulter Inc., Fullerton, Calif.). The inoculated plates were placed in stacks of no more than 4 and covered with an empty plate. Plates were incubated for 20-24 hours at 35 C in a humidified CO2 incubator.
Test Compound (“Drug”) Preparation
Drug stock solutions (2 mg/mL in DMSO) were prepared on the day of testing. Drugs were weight corrected for assay content where necessary.
Drug Dilution Tray Preparation
Microbroth dilution stock plates were prepared in two dilution series, 64-0.06 ug drug/mL and 1-0.001 ug drug/mL. For the high concentration series, 200 uL of stock solution (2 mg/mL) was added to duplicate rows of a 96-well plate. This was used as the first well in the dilution series. Serial two-fold decremental dilutions were made using a BioMek FX robot (Beckman Coulter Inc., Fullerton, Calif.) with 10 of the remaining 11 wells, each of which contained 100 uL of the appropriate solvent/diluent. Row 12 contained solvent/diluent only and served as the control. For tube one of the low concentration series, 200 uL of a 31.25 ug/mL stock was added to duplicate rows of a 96-well plate. Serial two-fold dilutions were made as described above.
Daughter plates were spotted (3.2 uL/well) from the stock plates listed above using the BioMek FX robot and were inoculated with organism (100 uL/well) as described previously.
After incubation, the degree of growth in each well was read visually with the aid of a Test Reading Mirror (Dynatech Lab 220-16, Dynex Technologies, Chantilly, Va.). 96-well test plates are read in a darkened room with a single light shining from above. The MIC is the lowest concentration of drug that prevents macroscopically visible growth under the conditions of the test. […] If MIC values in duplicate tests differ by 1 well (two-fold), the […] value is reported. If duplicate tests vary by 2 dilutions (four-fold), the middle value is reported.
On to `CCNC(=O)Nc1nc2cc(-c3cncnc3)ccn2n1` [Example 5, 1-Ethyl-3-(7-pyrimidin-5-yl-[1,2,4]triazolo[1,5-a]pyridin-2-yl)-urea], for which the MIC came to 64 µg/mL (≈ 226 µM).
In the case of `CCNC(=O)Nc1nc2cc(-c3cccnc3)cc(C(=O)NCC)n2n1` [Example 8, 2-(3-Ethyl-ureido)-7-pyridin-3-yl-[1,2,4]triazolo[1,5-a]pyridine-5-carboxylic acid ethylamide], the minimal inhibitory concentration (MIC) is 1 µg/mL (≈ 2.83 µM).
Still for that read-out and setting: as for `CCCNC(=O)c1cc(-c2cccnc2)cc2nc(NC(=O)NCC)nn12` [Example 9, 2-(3-Ethyl-ureido)-7-pyridin-3-yl-[1,2,4]triazolo[1,5-a]pyridine-5-carboxylic acid propylamide], the figure is 4 µg/mL (≈ 10.9 µM); as for `CCNC(=O)Nc1nc2cc(-c3cccnc3)cc(C(=O)NCC3CC3)n2n1` [Example 10, 2-(3-Ethyl-ureido)-7-pyridin-3-yl-[1,2,4]triazolo[1,5-a]pyridine-5-carboxylic acid cyclopropylmethyl-amide], 8 µg/mL (≈ 21.1 µM).
Still for that read-out and setting: as for `CCNC(=O)Nc1nc2cc(-c3cccnc3)cc(C(=O)NCc3ccccc3)n2n1` [Example 11, 2-(3-Ethyl-ureido)-7-pyridin-3-yl-[1,2,4]triazolo[1,5-a]pyridine-5-carboxylic acid benzylamide], the figure is > 64 µg/mL.
On to `CCNC(=O)Nc1nc2cc(-c3cccnc3)cc(C(=O)NC(C)C)n2n1` [Example 12, 2-(3-Ethyl-ureido)-7-pyridin-3-yl-[1,2,4]triazolo[1,5-a]pyridine-5-carboxylic acid isopropylamide], for which the MIC amounted to 2 µg/mL (≈ 5.44 µM).
Same read-out and setting: as for `CCNC(=O)Nc1nc2cc(-c3cccnc3)cc(C(=O)NC3CC3)n2n1` [Example 13, 2-(3-Ethyl-ureido)-7-pyridin-3-yl-[1,2,4]triazolo[1,5-a]pyridine-5-carboxylic acid cyclopropylamide], the figure is 4 µg/mL (≈ 10.9 µM).
In the case of `CCNC(=O)Nc1nc2cc(-c3cccnc3)cc(-c3cnco3)n2n1` [Example 22, N-Ethyl-N′-[5-(1,3-oxazol-5-yl)-7-pyridin-3-yl[1,2,4]triazolo[1,5-a]pyridin-2-yl]urea], the MIC was 0.5 µg/mL (≈ 1.43 µM).
On the same count and under the same terms, as for `CCNC(=O)Nc1nc2cc(-c3cccnc3)cc(/C=N/O)n2n1` [Example 24, N-Ethyl-N′-{5-[(E)-(hydroxyimino)methyl]-7-pyridin-3-yl[1,2,4]triazolo[1,5-a]pyridin-2-yl}urea], the figure is > 64 µg/mL.
Same read-out and setting: as for `CCNC(=O)Nc1nc2cc(-c3cccnc3)cc(C(C)O)n2n1` (stereo not drawn) [Example 25, N-Ethyl-N′-[5-(1-hydroxyethyl)-7-pyridin-3-yl[1,2,4]triazolo[1,5-a]pyridin-2-yl]urea], the figure is 1 µg/mL (≈ 3.06 µM); as for `CCNC(=O)Nc1nc2cc(-c3cccnc3)cc(C(C)=O)n2n1` [Example 26, N-(5-Acetyl-7-pyridin-3-yl[1,2,4]triazolo[1,5-a]pyridin-2-yl)-N′-ethylurea], 1 µg/mL (≈ 3.08 µM); as for `CCNC(=O)Nc1nc2cc(-c3cccnc3)cc(C#N)n2n1` [Example 27, N-(5-Cyano-7-pyridin-3-yl[1,2,4]triazolo[1,5-a]pyridin-2-yl)-N′-ethylurea], 2 µg/mL (≈ 6.51 µM).
On the same count and under the same terms, the figure for `CCNC(=O)Nc1nc2cc(-c3cccnc3)cc(-c3nnc(CC(C)=O)o3)n2n1` [Example 28, 1-Ethyl-3-{5-[5-(2-oxo-propyl)-[1,3,4]oxadiazol-2-yl]-7-pyridin-3-yl-[1,2,4]triazolo[1,5-a]pyridin-2-yl}-urea] is > 64 µg/mL; for `CCNC(=O)Nc1nc2cc(-c3cnccc3OC)cc(C(=O)NCC)n2n1` [Example 32, 2-(3-Ethyl-ureido)-7-(4-methoxy-pyridin-3-yl)-[1,2,4]triazolo[1,5-a]pyridine-5-carboxylic acid ethyl amide] it is 1 µg/mL (≈ 2.61 µM); for `CCNC(=O)Nc1nc2cc(C3=CCOCC3)cc(C(=O)NCC)n2n1` [Example 33, 7-(3,6-Dihydro-2H-pyran-4-yl)-2-(3-ethyl-ureido)-[1,2,4]triazolo[1,5-a]pyridine-5-carboxylic acid ethyl amide] it is > 64 µg/mL.
As to `CCNC(=O)Nc1nc2cc(-c3ccc(F)nc3)cc(C(=O)NCC)n2n1` [Example 34, 2-(3-Ethyl-ureido)-7-(6-fluoro-pyridin-3-yl)-[1,2,4]triazolo[1,5-a]pyridine-5-carboxylic acid ethylamide], the minimal inhibitory concentration (MIC) is 1 µg/mL (≈ 2.69 µM).
Still for that read-out and setting: as for `CCNC(=O)Nc1nc2cc(-c3ccc(C)nc3C)cc(C(=O)NCC)n2n1` [Example 35, 7-(2,6-Dimethyl-pyridin-3-yl)-2-(3-ethyl-ureido)-[1,2,4]triazolo[1,5-a]pyridine-5-carboxylic acid ethyl amide], the figure is 8 µg/mL (≈ 21 µM); as for `CCNC(=O)Nc1nc2cc(-c3cccnc3)cc(C(=O)N(C)CCN(CC)CC)n2n1` [Example 36, 2-(3-Ethyl-ureido)-7-pyridin-3-yl-[1,2,4]triazolo[1,5-a]pyridine-5-carboxylic acid(2-diethylamino-ethyl)-methyl-amide], > 64 µg/mL.
Regarding `CCNC(=O)Nc1nc2cc(-c3cccnc3)cc(C(=O)N[C@H]3CC[C@H](O)CC3)n2n1` [Example 39, trans-2-(3-Ethyl-ureido)-7-pyridin-3-yl-[1,2,4]triazolo[1,5-a]pyridine-5-carboxylic acid (4-hydroxy-cyclohexyl)-amide], the minimum inhibitory concentration (MIC) stood at 32 µg/mL (≈ 75.6 µM).
Same read-out and setting: as for `CCNC(=O)Nc1nc2cc(-c3cccnc3)cc(C(=O)NCC(C)C)n2n1` [Example 40, 2-(3-Ethyl-ureido)-7-pyridin-3-yl-[1,2,4]triazolo[1,5-a]pyridine-5-carboxylic acid isobutyl-amide], the figure is 2 µg/mL (≈ 5.24 µM).

Staying with this assay, now noted: microbroth dilution in gonococcal broth, 20-24 hours at 35 C, lowest concentration preventing visible growth.
As to “1-(5-Cyclopropylaminomethyl-7-pyridin-3-yl-imidazo[1,2-a]pyridin-2-yl)-3-ethyl-urea [Example 114]”, the MIC was determined as 32.0 µg/mL.
Same read-out and setting: as for “1-Ethyl-3-(5-ethylaminomethyl-7-pyridin-3-yl-imidazo[1,2-a]pyridin-2-yl)-urea [Example 115]”, the figure is 32.0 µg/mL; as for “1-Ethyl-3-[7-pyridin-3-yl-5-(pyrrolidine-1-carbonyl)-imidazo[1,2-a]pyridin-2-yl]-urea [Example 120]”, >64.0 µg/mL.
As to “1-[7-(6-Dimethylamino-pyridin-3-yl)-[1,2,4]triazolo[1,5-a]pyridin-2-yl]-3-ethyl-urea [Example 4]”, the MIC was >64.0 µg/mL.
Still for that read-out and setting: as for “2-(3-Ethyl-ureido)-7-(4-methoxy-phenyl)-imidazo[1,2-a]pyridine-5-carboxylic acid ethylamide [Example 119]”, the figure is 64.0 µg/mL; as for “7-(2-Dimethylamino-pyrimidin-5-yl)-2-(3-isopropyl-ureido)-imidazo[1,2-a]pyridine-5-carboxylic acid ethylamide [Example 117]”, >64.0 µg/mL.
Still for that read-out and setting: the figure for `CCNC(=O)Nc1nc2cc(-c3cccnc3)cc(C(=O)N(CC)CC)n2n1` [Example 14, 2-(3-Ethyl-ureido)-7-pyridin-3-yl-[1,2,4]triazolo[1,5-a]pyridine-5-carboxylic acid diethylamide] is 16 µg/mL (≈ 41.9 µM); for `CCNC(=O)Nc1nc2cc(-c3cccnc3)cc(-c3nnc(C(C)C)o3)n2n1` [Example 29] it is >64.0 µg/mL.
Same read-out and setting: the figure for `CCNC(=O)Nc1nc2cc(-c3cnc(N(C)C)nc3)cc(-c3nnc(CC(C)C)s3)n2n1` [Example 30] is >64.0 µg/mL; for `CCNC(=O)Nc1nc2cc(-c3cccnc3OC)cc(C(=O)NCC)n2n1` [Example 31, 2-(3-Ethyl-ureido)-7-(2-methoxy-pyridi-3-yl)-[1,2,4]triazolo[1,5-a]pyridine-5-carboxylic acid ethyl amide] it is 8.00 µg/mL (≈ 20.9 µM).

Values taken from US7524860B2, “Antibacterial agents” (Pfizer Inc., priority 2004, dated 2009).
